Assay results published in patent US10265278B2, “Pharmaceutical compositions and methods utilizing a D-amino acid” (priority 2008, dated 2019).
Like-named read-outs stand apart in the source and are kept apart here. Each block holds one molecule with its values, some of them ahead of it.

Columns and labels:
rat kidney [1] = conditions: cited from earlier work; for Effect on nephrotoxic effects of orally administered DL-serine: DL-serine 100 mg oral, test compound subcutaneous or intramuscular, rats (Wachstein); for Protective effect against D-serine nephrotoxicity: compound injected prior to D-serine (Kaltenbach et al 1982)
rat kidney [2] = conditions: cited from earlier work
Sprague Dawley rats [3] = assay: Creatanine levels in rats during oral D-serine treatment with or without glutathione precursors; format: in vivo
Protocol: (§1) Rats were divided into 5 separate groups of four male and four female animals each.
(§2) In addition, a control group received only standard diet. […] Effects of various doses were investigated in a sequential manner starting with 50 mg/kg. Dose level was doubled every three days up to four doses (50 mg, 100 mg, 200 mg & 400 mg).
(§3) Nephrotoxicity was assessed in two ways: first, by creatanine levels and second by histophathology at necropsy.

Sprague Dawley rats [4] = assay: Histopathological examination of kidney at necropsy (tubular nephrosis grade); format: in vivo; conditions: histopathology at necropsy; oral gavage up to 400 mg/kg
Protocol: as §1, §2, §3

rat kidney [5] = conditions: rats (Dickey et al 2007), cited from earlier work
[6] = oral NAC vs. hydration alone; cited from earlier work

Compound: CC(N)C(=O)O (racemic) [DL-alpha-alanine]
- Effect on nephrotoxic effects of orally administered DL-serine (rat kidney [1]): relatively ineffective

Compound: CC(N)(CO)C(=O)O (racemic) [DL-alpha-methylserine]
- Protective effect against D-serine nephrotoxicity (rat kidney [1]): significant protective effects

Compound: CSCCC(N)C(=O)O (racemic) [DL-methionine]
- Effect on nephrotoxic effects of orally administered DL-serine (rat kidney [1]): blocked

Compound: NC(CO)C(=O)O (racemic) [DL-serine]
- Renal injury induced (rat kidney [2]; 100 mg DL-serine, rats, stock diet or diet deficient in B vitamins): acute renal necrosis

Compound: C[C@@H](O)[C@H](N)C(=O)O (racemic) [DL-threonine]
- Effect on nephrotoxic effects of orally administered DL-serine (rat kidney [1]): partial or full prevention of toxicity

Compound: CC(C)C(N)C(=O)O (racemic) [DL-valine]
- Effect on nephrotoxic effects of orally administered DL-serine (rat kidney [1]): relatively ineffective

Compound: CC(C)C(O)C(N)C(=O)O (racemic) [beta-hydroxy-DL-leucine]
- Protective effect against D-serine nephrotoxicity (rat kidney [1]): significant protective effects

Compound: OCC(S)CS (stereo not shown) [2,3 dithiopropanol]
- Effect on nephrotoxic effects of orally administered DL-serine (rat kidney [1]): relatively ineffective

Compound: C[C@@H](N)C(=O)O [D-alanine]
- Protective effect against D-serine nephrotoxicity (rat kidney [1]): significant protective effects

Compound: O=C[C@H](O)[C@@H](O)[C@H](O)[C@H](O)CO [D-glucose]
- Effect on nephrotoxic effects of orally administered DL-serine (rat kidney [1]): relatively ineffective

Compound: N[C@H](CCO)C(=O)O [D-homoserine]
- Protective effect against D-serine nephrotoxicity (rat kidney [1]): significant protective effects

Compound: C[C@H](O)[C@@H](N)C(=O)O [D-threonine]
- Protective effect against D-serine nephrotoxicity (rat kidney [1]): significant protective effects

- Increase in creatanine levels during treatment (Sprague Dawley rats [3]; post vs. pre, in words): significant increase
- Creatanine level, Change mean (Sprague Dawley rats [3]; post- minus pre-treatment): 0.12
- Creatanine level, Post-treatment mean (Sprague Dawley rats [3]; post-treatment, oral gavage, doses escalated 50, 100, 200, 400 mg/kg): 0.77
- Creatanine level, Pre-treatment Mean (Sprague Dawley rats [3]; pre-treatment (baseline), rats, oral gavage): 0.65
Compound: N[C@H](CO)C(=O)O [Group A, D-serine]
- Nephrosis level (mean severity grade of tubular nephrosis) (Sprague Dawley rats [4]): 1.91
- Nephrotoxicity in rats lacking DAAO (rat kidney [2]; rats lacking DAAO (Maekawa et al 2005)): not nephrotoxic
- Smallest dose consistently producing renal lesions (rat kidney [2]; rats): 5 mg per 100 g

Compound: N=C(N)NCCC[C@H](N)C(=O)O [L-arginine]
- Effect on nephrotoxic effects of orally administered DL-serine (rat kidney [1]): relatively ineffective

Compound: N[C@@H](Cc1c[nH]cn1)C(=O)O [L-histidine]
- Effect on nephrotoxic effects of orally administered DL-serine (rat kidney [1]): relatively ineffective

Compound: CC(=O)N[C@@H](CS)C(=O)O [NAC, N-acetylcysteine]
- Effect against cisplatin-induced experimental nephrotoxicity (rat kidney [5]; intravenous NAC): effective
- Effect against cisplatin-induced experimental nephrotoxicity (rat kidney [5]; oral NAC): not found beneficial effects
- Blockade of nephrotoxicity due to intravenous contrast [6]: not found benefit over hydration alone

Compound: CC(C)(N)C(=O)O [alpha-aminoisobutryic acid]
- Protective effect against D-serine nephrotoxicity (rat kidney [1]): significant protective effects

Compound: CCCC(=O)O [butyric acid]
- Effect on nephrotoxic effects of orally administered DL-serine (rat kidney [1]): relatively ineffective

Compound: N[C@@H](CCC(=O)N[C@@H](CS)C(=O)NCC(=O)O)C(=O)O [glutathione]
- Effect on nephrotoxic effects of orally administered DL-serine (rat kidney [1]): blocked
- Prevention of D-serine toxicity (rat kidney [1]; intrarenal injection, equimolar with D-serine (Krug et al 2007)): toxicity can be prevented

Compound: NCC(=O)O [glycine]
- Effect on nephrotoxic effects of orally administered DL-serine (rat kidney [1]): partial or full prevention of toxicity

Compound: CC(=O)[O-].[Na+] [sodium acetate]
- Effect on nephrotoxic effects of orally administered DL-serine (rat kidney [1]): relatively ineffective

Compound: O=C([O-])c1ccccc1.[Na+] [sodium benzoate]
- Prevention of D-serine toxicity (rat kidney [1]; intraperitoneal, large doses (Williams and Lock 2005)): toxicity can be prevented

Compound: [Cl-].[Na+] [sodium chloride]
- Effect on nephrotoxic effects of orally administered DL-serine (rat kidney [1]): relatively ineffective

Compound: CC(O)C(=O)[O-].[Na+] (stereo not shown) [sodium lactate]
- Effect on nephrotoxic effects of orally administered DL-serine (rat kidney [1]): partial or full prevention of toxicity

Compound: O=C([O-])CS.[Na+] [sodium thioglycollate]
- Effect on nephrotoxic effects of orally administered DL-serine (rat kidney [1]): relatively ineffective
